Measured values as given in PMC7170901, “Design and efficient synthesis of pyrazoline and isoxazole bridged indole C-glycoside hybrids as potential anticancer agents” (Scientific Reports, 2020).

Test system: MDA-MB-231 (human breast cancer) cell line
Experiment: MTT cell viability assay in MDA-MB-231 cells
Format: cell-based
Settings: for viability at 10 µM / viability at 25 µM / viability at 50 µM: MDA-MB-231, 72 h; for viability at 10 µM / viability at 25 µM / viability at 50 µM / Cell Viability (%) ± SD: 72 h, MTT
Procedure: IC50 values were determined by plotting values of percent cell viability against concentration of each of these compounds. […] The experiments were performed in triplicates, n = 3 and ± SE value was calculated for each data point.
The human breast cancer cell line MDA-MB-231 were cultured in Dulbecco’s Modified Eagle’s Medium (DMEM) (Gibco, St. Louis, USA) supplemented with 10% heat inactivated FBS (Fetal Bovine Serum, Gibco, USA) and 1% penicillin-streptomycin (Gibco Canada) in humidified CO2 incubator at 37 °C. The cells were maintained as a monolayer in 100 mm culture plate. The cells used for each experiment were of less than 8 passage number. Sub culturing of cells was performed every third day, followed by trypsin EDTA treatment.
Cell viability assay was performed as per standard protocols. […] Ltd, India). In brief, this is a homogeneous, colorimetric method for determining the number of viable cells in proliferation, cytotoxicity or chemosensitivity assays. MTT is bio reduced by cells into a formazan product that is soluble in the tissue culture medium. […] The absorbance of the formazan product at 595 nm was measured directly from 96-well assay plates without additional processing using a multimode plate reader (Bio-Rad) (iMark, India), as absorbance is directly proportional to the number of viable cells in culture. The percentage of viable cells in each group is determined with respect to the untreated control cells.

[1] = Homo sapiens, MDA-MB-231, 10 µM, read-out: Cell Viability (%) ± SD
[2] = Homo sapiens, MDA-MB-231, 25 µM, read-out: Cell Viability (%) ± SD
[3] = Homo sapiens, MDA-MB-231, 50 µM, read-out: Cell Viability (%) ± SD

Compound	viability at 10 µM [1] [%]	viability at 25 µM [2] [%]	viability at 50 µM [3] [%]	viability at 20 µM (Homo sapiens, MDA-MB-231, MDA-MB-231, positive control at 20 µM, read-out: Cell Viability (%) ± SD) [%]	Cell Viability (%) ± SD (MDA-MB-231, 10 µM, 10 µM) [%]	Cell Viability (%) ± SD (MDA-MB-231, 25 µM, 25 µM) [%]	Cell Viability (%) ± SD (MDA-MB-231, 50 µM, 50 µM) [%]
O=[N+]([O-])c1ccc2[nH]cc(-c3cc(C[C@@H]4O[C@H](CO)[C@H](O)[C@H](O)[C@H]4O)no3)c2c1 [Compound 38, (2 R,3 R,4 R,5 R,6 S)-2-(hydroxymethyl)-6-((5-(5-nitro-1H-indol-3-yl)isoxazol-3-yl)methyl) tetrahydro-2H-pyran-3,4,5-triol]	99.1 ± 5.63	94.5 ± 3.67	94.9 ± 4.49	–	–	–	–
OC[C@H]1O[C@@H](Cc2cc(-c3c[nH]c4ccccc34)on2)[C@@H](O)[C@@H](O)[C@@H]1O [Compound 41, (2 S,3 S,4 R,5 S,6 R)-2-((5-(1H-indol-3-yl)isoxazol-3-yl)methyl)-6-(hydroxymethyl) tetrahydro-2H-pyran-3,4,5-triol]	89.2 ± 3.7	81.2 ± 5.17	74 ± 17.6	–	–	–	–
O=C(/C=C/c1c[nH]c2ccc(Br)cc12)C[C@@H]1O[C@H](CO)[C@H](O)[C@H](O)[C@H]1O [Compound 15, (E)-4-(5-bromo-1H-indol-3-yl)-1-((2S,3R,4R,5R,6R)-3,4,5-trihydroxy-6-(hydroxymethyl)tetrahydro-2H-pyran-2-yl)but-3-en-2-one]	125 ± 3.51	113 ± 23.9	67.5 ± 17.7	–	–	–	–
OC[C@H]1O[C@@H](CC2=NNC(c3c[nH]c4ccc(Cl)cc34)C2)[C@@H](O)[C@@H](O)[C@@H]1O (stereo partly shown) [Compound 32, (2 S,3 S,4 R,5 S,6 R)-2-((5-(5-chloro-1H-indol-3-yl)-4,5-dihydro-1H-pyrazol-3-yl)methyl)-6-(hydroxymethyl)tetrahydro-2H-pyran-3,4,5-triol]	74.6 ± 4.7	78.5 ± 4.44	66.5 ± 7.27	–	–	–	–
OC[C@H]1O[C@@H](Cc2cc(-c3c[nH]c4ccccc34)on2)[C@H](O)[C@@H](O)[C@@H]1O [Compound 33, (2 S,3 R,4 R,5 S,6 R)-2-((5-(1H-indol-3-yl)isoxazol-3-yl)methyl)-6-(hydroxymethyl) tetrahydro-2H-pyran-3,4,5-triol]	104 ± 12.7	106 ± 7.4	92.6 ± 15.2	–	–	–	–
OC[C@H]1O[C@@H](CC2=NNC(c3c[nH]c4ccccc34)C2)[C@@H](O)[C@@H](O)[C@@H]1O (stereo partly shown) [Compound 29, (2 S,3 S,4 R,5 S,6 R)-2-((5-(1H-indol-3-yl)-4,5-dihydro-1H-pyrazol-3-yl)methyl)-6-(hydroxy-methyl)tetrahydro-2H-pyran-3,4,5-triol]	82.2 ± 7.65	76.6 ± 6.58	73.5 ± 8.45	–	–	–	–
CC1=CC(=O)c2ccccc2C1=O [Menadione, menadione, reference compound]	–	–	–	20.8 ± 8.7	–	–	–
OC[C@H]1O[C@@H](Cc2cc(-c3c[nH]c4ccc(Cl)cc34)on2)[C@H](O)[C@@H](O)[C@@H]1O [Compound 36, (2 S,3 R,4 R,5 S,6 R)-2-((5-(5-chloro-1H-indol-3-yl)isoxazol-3-yl)methyl)-6-(hydroxymethyl) tetrahydro-2H-pyran-3,4,5-triol]	97.8 ± 11.6	96.8 ± 11.6	99.3 ± 4.28	–	–	–	–
O=C(/C=C/c1c[nH]c2ccc(Cl)cc12)C[C@@H]1O[C@H](CO)[C@H](O)[C@H](O)[C@H]1O [Compound 16, (E)-4-(5-chloro-1H-indol-3-yl)-1-((2S,3R,4R,5R,6R)-3,4,5-trihydroxy-6-(hydroxylmethyl)tetrahydro-2H-pyran-2-yl)but-3-en-2-one]	75 ± 14.3	89.6 ± 12.9	56.7 ± 17.8	–	–	–	–
O=C(/C=C/c1c[nH]c2ccc(Br)cc12)C[C@@H]1O[C@H](CO)[C@@H](O)[C@H](O)[C@H]1O [Compound 11, (E)-4-(5-bromo-1H-indol-3-yl)-1-((2S,3R,4R,5S,6R)-3,4,5-trihydroxy-6-(hydroxymethyl)tetrahydro-2H-pyran-2-yl)but-3-en-2-one]	100 ± 23	100 ± 8.93	108 ± 2.89	–	–	–	–
O=C(/C=C/c1c[nH]c2ccc(Cl)cc12)C[C@@H]1O[C@H](CO)[C@@H](O)[C@H](O)[C@H]1O [Compound 12, (E)-4-(5-chloro-1H-indol-3-yl)-1-((2S,3R,4R,5S,6R)-3,4,5-trihydroxy-6-(hydroxymethyl)tetrahydro-2H-pyran-2-yl)but-3-en-2-one]	79.2 ± 8.51	89.8 ± 8.75	74.8 ± 7.02	–	–	–	–
OC[C@H]1O[C@@H](CC2=NNC(c3c[nH]c4ccc(Br)cc34)C2)[C@H](O)[C@@H](O)[C@H]1O (stereo partly shown) [Compound 27, (2 S,3 R,4 R,5 R,6 R)-2-((5-(5-bromo-1H-indol-3-yl)-4,5-dihydro-1H-pyrazol-3-yl)methyl)-6-(hydroxymethyl)tetrahydro-2H-pyran-3,4,5-triol]	90 ± 7.7	90.8 ± 7.09	97.7 ± 10.1	–	–	–	–
O=[N+]([O-])c1ccc2[nH]cc(C3CC(C[C@@H]4O[C@H](CO)[C@@H](O)[C@H](O)[C@H]4O)=NN3)c2c1 (stereo partly drawn) [Compound 22, (2R,3S,4R,5R,6S)-2-(hydroxymethyl)-6-((5-(5-nitro-1H-indol-3-yl)-4,5-dihydro-1H-pyrazol-3-yl)methyl)tetrahydro-2H-pyran-3,4,5-triol]	70.4 ± 13	68.6 ± 11.1	70.3 ± 6.17	–	–	–	–
O=C(/C=C/c1c[nH]c2ccccc12)C[C@@H]1O[C@H](CO)[C@@H](O)[C@H](O)[C@@H]1O [Compound 17, (E)-4-(1H-indol-3-yl)-1-((2S,3S,4R,5S,6R)-3,4,5-trihydroxy-6-(hydroxymethyl)tetrahydro-2H-pyran-2-yl)but-3-en-2-one]	84.1 ± 4.09	80.5 ± 2.58	79.4 ± 10.4	–	–	–	–
OC[C@H]1O[C@@H](CC2=NNC(c3c[nH]c4ccc(Cl)cc34)C2)[C@H](O)[C@@H](O)[C@H]1O (stereo partly shown) [Compound 28, (2 S,3 R,4 R,5 R,6 R)-2-((5-(5-chloro-1H-indol-3-yl)-4,5-dihydro-1H-pyrazol-3-yl)methyl)-6-(hydroxymethyl)tetrahydro-2H-pyran-3,4,5-triol]	99.5 ± 10.2	95.2 ± 13.6	63.4 ± 17.5	–	–	–	–
O=C(/C=C/c1c[nH]c2ccc([N+](=O)[O-])cc12)C[C@@H]1O[C@H](CO)[C@@H](O)[C@H](O)[C@H]1O [Compound 10, (E)-4-(5-nitro-1H-indol-3-yl)-1-((2S,3R,4R,5S,6R)-3,4,5-trihydroxy-6-(hydroxymethyl)tetrahydro-2H-pyran-2-yl)but-3-en-2-one]	–	–	–	–	91.40 ± 10.38	84.49 ± 6.74	85.37 ± 14.16
O=[N+]([O-])c1ccc2[nH]cc(C3CC(C[C@@H]4O[C@H](CO)[C@H](O)[C@H](O)[C@H]4O)=NN3)c2c1 (stereo partly shown) [Compound 26, (2 S,3 R,4 R,5 R,6 R)-2-((5-(5-nitro-1H-indol-3-yl)-4,5-dihydro-1H-pyrazol-3-yl)methyl)-6-(hydroxymethyl)tetrahydro-2H-pyran-3,4,5-triol]	101 ± 9.67	98.25 ± 0.34	99.5 ± 1.88	–	–	–	–
O=[N+]([O-])c1ccc2[nH]cc(-c3cc(C[C@@H]4O[C@H](CO)[C@@H](O)[C@H](O)[C@@H]4O)no3)c2c1 [Compound 42, (2 R,3 S,4 R,5 S,6 S)-2-(hydroxymethyl)-6-((5-(5-nitro-1H-indol-3-yl)isoxazol-3-yl)methyl) tetrahydro-2H-pyran-3,4,5-triol]	92.6 ± 11.5	93.4 ± 15.7	95.2 ± 13.6	–	–	–	–
OC[C@H]1O[C@@H](CC2=NNC(c3c[nH]c4ccccc34)C2)[C@H](O)[C@@H](O)[C@@H]1O (stereo partly drawn) [Compound 21, (2S,3R,4R,5S,6R)-2-((5-(1H-indol-3-yl)-4,5-dihydro-1H-pyrazol-3-yl)methyl)-6-(hydroxy-methyl)tetrahydro-2H-pyran-3,4,5-triol]	73.5 ± 2.43	76.8 ± 2.43	75 ± 2.62	–	–	–	–
OC[C@H]1O[C@@H](Cc2cc(-c3c[nH]c4ccc(Br)cc34)on2)[C@H](O)[C@@H](O)[C@@H]1O [Compound 35, (2 S,3 R,4 R,5 S,6 R)-2-((5-(5-bromo-1H-indol-3-yl)isoxazol-3-yl)methyl)-6-(hydroxy-methyl)tetrahydro-2H-pyran-3,4,5-triol]	95.5 ± 4.91	95.3 ± 3.6	93.9 ± 9.08	–	–	–	–
OC[C@H]1O[C@@H](Cc2cc(-c3c[nH]c4ccc(Br)cc34)on2)[C@H](O)[C@@H](O)[C@H]1O [Compound 39, (2 S,3 R,4 R,5 R,6 R)-2-((5-(5-bromo-1H-indol-3-yl)isoxazol-3-yl)methyl)-6-(hydroxymethyl) tetrahydro-2H-pyran-3,4,5-triol]	120 ± 17.6	89.4 ± 5.32	90.3 ± 2.88	–	–	–	–
